The structures appear in SMILES notation.

The subject of one series is human PBMC cells. Nature of the series: LPS-induced IL1β and TNFα cytokine release from PBMC cells (ELISA). In kind it is cell-based. The note with it: LPS-exposed human PBMC. Here is the method: (§1) FIGS. 20A-20J is a table depicting benzathine compounds, and assay results. PBMC cells (0.6 ml at 1.5*10^6/ml) were treated with 2 ug/ml LPS for 16 hrs along with each compound at different concentrations. IL1β and TNFα cytokine release were monitored by ELISA to calculate the IC50. U937 monocyte (0.6 ml at 1.5*10^6/ml) were treated with each compound at different concentrations for 16 h. Cells were then stained with Trypan blue to differentiate dead cells, and calculate the LD50. Therapeutic index (TI)=LD50/IC50. Compounds marked in red are high value targets (low IC50, high LD50) and require further testing in vivo.
(§2) Briefly, compounds were added to human PBMC cells at different concentrations that were exposed to […] and cytokine secretion was monitored by ELISA to determine the IC50. Compounds were also added to U937 monocytes at different concentrations, and cells were stained with trypan blue to determine the LD50. […] Several functional studies were undertaken to assess anti-inflammatory effects focusing on BC-1215.
(ELISA stands for enzyme-linked immunosorbent assay.)

The subject of a further series is U937 monocyte. Nature of the series: U937 monocyte Trypan blue cell death (LD50). The settings on record: U937 monocytes, 16 h. The series is classed as cell-based, human. On the procedure:
as §1, §2

In series [1] the test system is C57BL6 mice. Nature of the series: Pseudomonas aeruginosa PA103 pneumonia model. The note with it: i.p., PA103 2.5*10^4 cfu/mouse i.t., 18 h. The series is classed as in vivo.
For series [2], the system named is C57BL6 mice. Kind of series: TPA induced ear edema. In kind it is in vivo. The note with it: various doses to ears 30 min after TPA, 18 h. Here is the method: FIGS. 15A-15C. […] FIG. 15A-15C. C57BL6 mice were deeply anesthetized with ketamine (80-100 mg/kg i.p.) and xylazine (10 mg/kg i.p.). 20 μl of ethanol solution of BC-1215 was applied to ears at 8, 40, 200 ug/ear 30 min after TPA administration (2 μg/ear). Comparisons included equal volumes of ethanol (vehicle control). 18 h after TPA administration, mice were euthanized; the thickness of the ear was measured using a micrometer (FIG. 15B). Ear punch biopsies were also taken immediately, weighed and graphed (FIG. 15C).
FIGS. 23A-23D. […] Different dose of BC-1261 was applied to ears of mice at various doses 30 min after TPA administration (2 μg/ear). A. Gross comparisons were made with equal volumes of ethanol as a vehicle control (CON). 18 h after TPA administration, mice were euthanized and the thickness of the ear was measured using a micrometer (B). Autopsy sample were also taken to measure MPO activity (C) and calculate ear edema (D). The data represent n=6 mice/group, *P<0.05 versus TPA.
Topical application of BC-1215 as an anti-inflammatory agent was tested in a model of 12-O-tetradecanoylphorbol-13-acetate (TPA) induced ear edema (Bralley et. al., J Inflamm (LOnd), 2008. 5:p.1). Briefly, 20 μl of an ethanol solution of BC-1215 was applied to ears of mice at 8, 40, and 200 ug/ear for 30 min after TPA administration (2 μg/ear). Comparisons included equal volumes of ethanol (vehicle control). 18 h after TPA administration, mice were euthanized; the thickness of the ear was measured using a micrometer. Ear punch biopsies were also taken immediately, weighed, and graphed.

For series [3], the system named is C57BL6 mice. Nature of the series: DSS induced (acute) colitis. The series is classed as in vivo. The settings on record: 150 μg daily i.p. or 30 μg/ml drinking water, 3.5% DSS. On the procedure:
FIGS. 17A-17D. BC-1215 reduces DSS induced colonic inflammation. FIGS. 17A-FIG. 17C. C57BL6 mice were fed with water containing 3.5% dextran sulfate sodium (DSS) for up to five days. Mice were treated with either vehicle or 100 ug of BC-1215 daily (via IP injection). Mice were then euthanized; the length of the colon was measured and graphed in (FIG. 17A). Colonic tissues were also analyzed for IL1β (FIG. 17B) and TNFα (FIG. 17C) by ELISA. (n=4 mice/group, *p<0.05 versus DSS) FIG. 17D, H&E staining was performed on colonic samples. (n=4 mice/group, *p<0.05 versus DSS)
FIGS. 24A-24E. […] A-D. C57BL6 mice were fed with water ad lib containing 3.5% dextran sulfate sodium (DSS) for up to five days. Mice were treated with either vehicle (control [CON]) or BC-1261 (150 μg) daily (via an i.p. injection), or BC-1261 were administered into drinking water at 30 μg/ml (po). Mice were then euthanized and the length of the colon was measured and graphed in (A-B). Colonic tissues were also analyzed for TNFα (C) and IL6(D). E. H&E staining was performed on colonic sections. The data represent n=4 mice/group, *P<0.05 versus DSS and **P<0.05 versus CON.
BC-1215 ameliorates DSS induced colitis. BC-1215 was also tested in a mouse colitis model to confirm its anti-inflammatory activity. Briefly, C57BL6 mice were fed with water containing 3.5% dextran sulfate sodium (DSS) for up to five days. Mice were treated with either vehicle or 200 ug of BC-1215 daily (via IP injection). Mice were then euthanized; the length of colons was measured. […] Colonic tissue cytokine levels were analyzed. […] Thus, the FBXO3 inhibitor BC-1215 suppresses inflammation in chemical induced colitis model in mice.

The test system of the next series is mice. Kind of series: Cigarette smoke induced chronic lung inflammation. In kind it is in vivo. The settings on record: 100 ug i.p. after 5 weeks smoke, 18 h. Here is the method:
FIGS. 22A-22C. […] Mice were exposed to cigarette smoke for 5 weeks before one does of i.p. injection of BC1261 (100 ug), 18 h later, mice were euthanized and lungs were lavaged with saline, harvested, and then homogenized. Lavage protein, cell counts and cytokine secretion were measured in (A-C). The data represent n=3 mice/group, *P<0.05 versus con.

For series [4], the system named is C57BL6 mice. Nature of the series: DSS induced chronic colonic inflammation. The series is classed as in vivo. The note with it: 30 μg/ml drinking water from day 7, 2% DSS cycles. On the procedure:
FIGS. 25A-25J. […] A. C57BL6 mice were fed with water ad lib containing 2% dextran sulfate sodium (DSS) for six days, then switch to water for up to three cycles. BC-1261 was administered into drinking water at 30 μg/ml, starting at day 7. Mice were euthanized at the end of the experiment and the length of the colon was measured and graphed in (B-C). Disease index was measured and graphed in (D). Serum cytokine levels were measured in (E-F). Colonic tissues cytokines and MPO activity were also analyzed (GJ). The data represent n=7 mice/group, *P<0.05 versus CON.

In a further series the test system is MLE cells. Nature of the series: BrdU/7-AAD FACS cell cycle and apoptosis analysis. The series is classed as cell-based, murine. On the procedure: FIGS. 27A-27G. […] A. PBMCs from 5 controls, AML, and ALL subjects were cultured in RPMI medium for 18 h. Cells were then collected, lysed, and assayed for protein immunoblotting. B-D. Human leukemia cells (U937, K562 and THP1 cells) were treated with BC-1258 at different concentrations for 16 h. Cells were collected and assayed for Aurora B, cyclin D2, cyclin D3 and FBXL2 immunoblotting. E-F. MLE cells were treated with BC-1258 at different concentrations for 16 h, cells were processed by BrdU uptake and 7-AAD staining followed by FACS cell cycle analysis (E), 2N, 4N, and 8N DNA histograms were quantitated and graphed in (F). G. Quantification of FACS analysis showing levels of apoptotic MLE cells after BC-1258 treatment at each time point.

A further series concerns U937 tumor implants. Nature of the series: U937 tumor xenograft in nude mice. The series is classed as in vivo. The settings on record: 30 ug/ml in the drinking water. Here is the method: FIGS. 28A-281. […] A-E. Effect of BC-1258 and other compounds on growth of U937 tumor implants in nude mice, n=4 mice/group with drug concentration at 30 ug/ml in the drinking water. […] B. Tumor volume measurements over time (n=4 mice/group, *P<0.05 versus con). D. Tumor tissue from C were weighted and graphed (n=4 mice/group, *P<0.05 versus con). E. Tumors from three controls and three drug treated U937 implants in mice were collected at the end-point, and assayed for AuroraB, CaM and FBXL2 proteins by immunoblotting. F-I. Serum of each mice were collected at the end point and processed for creatinine, LDH, ALT and creatine kinase activity.

In the case of `c1cnc(-c2ccc(CNCCNCc3ccc(-c4ncccn4)cc3)cc2)nc1` [BC-1261], in the series with human PBMC cells, the “IC50 (cytokine secretion)” value is on record as “high”. Besides, in the series with U937 monocyte, the LD50 entry is “low”. For the same compound, in the series with C57BL6 mice [1], the “P. aeruginosa induced lung inflammation” value is listed as “reduces P. aeruginosa induced lung inflammation”. Further, the “TPA induced ear edema” value in the series on C57BL6 mice [2] is listed as “reduces TPA induced ear edema”. Moreover, the “DSS induced acute colonic inflammation” value with C57BL6 mice [3] is “reduces DSS induced acute colonic inflammation”. For the same compound, the “smoke induced chronic lung inflammation” value in the series with mice was “reduces smoke induced chronic lung inflammation”. Further, the “DSS induced chronic colonic inflammation” value with C57BL6 mice [4] is “reduces DSS induced chronic colonic inflammation”.

Regarding `c1cn(-c2ccc(CNCCNCc3ccc(-n4ccnc4)cc3)cc2)cn1` [BC-1207], the “IC50 (cytokine secretion)” value with human PBMC cells was “high”. In the series on U937 monocyte, the LD50 entry was “low”.

With `c1csc(-c2ccc(CNCCNCc3ccc(-c4nccs4)cc3)cc2)n1` [BC-1258], in the series on MLE cells, the apoptosis entry was “apoptosis”. In the series on MLE cells (different concentrations, 16 h), the cell cycle arrest result is on record as “Induces G2/M arrest”. For the same compound, the tumor growth entry in the series with U937 tumor implants is recorded as “suppresses tumor growth in xenograft”.

Regarding `Fc1ccc(CNCCNCc2ccc(-c3ccccn3)cc2)cc1` [BC-1241], the “IC50 (cytokine secretion)” value in the series with human PBMC cells is given as “high”. Further, the LD50 entry in the series with U937 monocyte was “low”.

Turning to `c1cnn(-c2ccc(CNCCNCc3ccc(-n4cccn4)cc3)cc2)c1` [BC-1250], the “IC50 (cytokine secretion)” value in the series on human PBMC cells is “high”. Further, the LD50 result in the series with U937 monocyte is listed as “low”.
